# According to US7582618B2 (priority 2002, dated 2009):
# What was measured:
# [1] = Cytotoxicity (cell proliferation) assay; conditions: rat, H9c2 myocardial cells
# [2] = test system: BVDV I-NADL cp in MDBK cells; experiment: Yield reduction assay; assay type: cell-based; conditions: Bovine viral diarrhea virus isolates and strains
# Protocol: For each compound the concentration to obtain a 6-log reduction in viral load was determined in duplicate 24-well plates by yield reduction assays. The assay was performed as described by Baginski, S. G.; Pevear, D. C.; Seipel, M.; Sun, S. C. C.; Benetatos, C. A.; Chunduru, S. K.; Rice, C. M. and M. S. Collett “Mechanism of action of a pestivirus antiviral compound” PNAS USA 2000, 97(14), 7981-7986, with minor modifications. Briefly, MDBK cells were seeded onto 24-well plates (2×10^5 cells per well) 24 hours before infection with BVDV (NADL strain) at a multiplicity of infection (MOI) of 0.1 PFU per cell. Serial dilutions of test compounds were added to cells in a final concentration of 0.5% DMSO in growth medium. Each dilution was tested in triplicate. After three days, cell cultures (cell monolayers and supernatants) were lysed by three freeze-thaw cycles, and virus yield was quantified by plaque assay. Briefly, MDBK cells were seeded onto 6-well plates (5×10^5 cells per well) 24 h before use. Cells were inoculated with 0.2 mL of test lysates for 1 hour, washed and overlaid with 0.5% agarose in growth medium. After 3 days, cell monolayers were fixed with 3.5% formaldehyde and stained with 1% crystal violet (w/v in 50% ethanol) to visualize plaques. The plaques were counted to determine the concentration to obtain a 6-log reduction in viral load.
# HepG2 cells = experiment: Mitochondrial DNA content (mtDNA/nuclear DNA); assay type: cell-based, human; conditions: 10 μM
# Protocol: To assess the potential of mCyd to produce mitochondrial toxicity, several in vitro studies were conducted using the human hepatoma cell lines HepG2 or Huh7.
# • a. HepG2 or huh7 cells were treated with compounds for 4 days, data represent at least three independent experiments • b. HepG2 cells were treated with compounds for 6 and 14 days, data represents at least three independent experiments • c. HepG2 cells were treated with compounds for 14 days • d. 17% cell (11 of 64) contained 1 or 2 enlarged mitochondria out of 25 in two independent experiments nd, not determined
# [3] = test system: BVDV New York-1 ncp in MDBK cells; experiment: Yield reduction assay; assay type: cell-based, bovine viral diarrhea virus
# DENV 2 = experiment: Antiviral test (Table 8b); assay type: cell-based; conditions: Dengue virus
# Cytotoxicity (Table 10) = conditions: rhesus monkey, MA-104 cells
# Yellow Fever virus = experiment: microbe, parasite or virus in culture; assay type: cell-based; conditions: read-out: composite EC50 range, Yellow Fever virus
# WNV (Vero) = experiment: microbe, parasite or virus in culture; assay type: cell-based; conditions: West Nile virus
# [4] = test system: BVDV (strain I-N-dIns), noncytopathic; assay type: cell-based, bovine viral diarrhea virus
# [5] = Clinical pharmacokinetics of mCyd after oral val-mCyd; conditions: human, plasma, mCyd in plasma; for AUC(0-inf): AUC0-inf (Mean); for Cmax: Cmax (Mean); for Tmax: Tmax (Mean); for half-life: t1/2 (Mean)
# DENV-4 in BHK cells = experiment: Cell protection assay; assay type: cell-based; conditions: Dengue virus, DENV4, DENV-4, BHK
# [6] = Cytotoxicity testing by NIH program; conditions: human and other mammalian
# DENV-2 in BHK cells = experiment: Cell protection assay; assay type: cell-based; conditions: Dengue virus, DENV2, DENV-2, BHK
# [7] = Cytotoxicity (cell proliferation) assay; conditions: bovine, MDBK kidney cells
# Cytotoxicity assay = conditions: mouse
# [8] = Human bone marrow clonogenic assay
# CVB-4 = experiment: microbe, parasite or virus in culture; assay type: cell-based, Coxsackievirus B-4; conditions: Coxsackievirus, read-out: EC50 CVB-4
# [9] = test system: BVDV NADL cp in MDBK cells; experiment: Yield reduction assay; assay type: cell-based, bovine viral diarrhea virus
# [10] = test system: Parainfluenzatype 3 (MA-104); experiment: organism not typed; assay type: cell-based; conditions: MA104
# MCMV (MEF) = experiment: organism not typed; assay type: cell-based
# [11] = 50 mg, val-mCyd 50 mg PO, Day 1
# [12] = 50 mg, val-mCyd 50 mg PO, Day 15
# [13] = 100 mg, val-mCyd 100 mg PO, Day 1
# [14] = 100 mg, val-mCyd 100 mg PO, Day 15
smiles,measurement,setting,value
"CC1(O)C(O)C(CO)OC1n1ccc(N)nc1=O (centres unmarked) [mCyd, 4-Amino-1-(3,4-dihydroxy-5-hydroxymethyl-3-methyl-tetrahydro-furan-2-yl)-1H-pyrimidine-2-one]",CC50 at 4 days,[1],> 250 µM
same,EC50,[2],0.68 µM
same,EC90,[2]; read-out: Antiviral Efficacy EC90,1.73 µM
same,"mtDNA/nuclear DNA (% of Control), 6 day Treatment",HepG2 cells,117.3 ± 17.5 % of Control
same,"mtDNA/nuclear DNA (% of Control), 14 day Treatment",HepG2 cells,99.7 ± 23.9 % of Control
same,Antiviral Efficacy EC4 log,[3],6.03 ± 1.41 μM
same,EC50,[3]; Bovine viral diarrhea virus isolates and strains,0.3 ± 0.07 µM
same,EC90,"[3]; Bovine viral diarrhea virus isolates and strains, read-out: Antiviral Efficacy EC90",0.87 ± 0.18 µM
same,EC50,DENV 2,95 µM
same,CC50,Cytotoxicity (Table 10),200 µM
same,CC50,"Cytotoxicity (Table 10); CC50, MA-104, Parainfluenza type 3 row",> 200 µM
same,EC50,Yellow Fever virus,9 to 80 µM
same,EC50,WNV (Vero),46 µM
same,virus detection under prolonged treatment,"[4]; 8 μM, after two passages, re-emerged by passage 6",no longer detectable
same,virus production,"[4]; 16 μM, from more than 6 logs of virus per ml, within two cell passages",undetectable levels
same,AUC(0-inf),[5]; [11],3.12 µg·h/mL
same,AUC(0-inf),[5]; [12],3.17 µg·h/mL
same,Cmax,[5]; [11],0.428 µg/mL
same,Cmax,[5]; [12],0.363 µg/mL
same,Tmax,[5]; [11],2.5 h
same,Tmax,[5]; [12],2.2 h
same,half-life,[5]; [11],4.1 h
same,half-life,[5]; [12],4.6 h
same,AUC(0-inf),[5]; [13],6.9 µg·h/mL
same,AUC(0-inf),[5]; [14],7.67 µg·h/mL
same,Cmax,[5]; [13],0.982 µg/mL
same,Cmax,[5]; [14],1.05 µg/mL
same,Tmax,[5]; [13],2.6 h
same,Tmax,[5]; [14],2 h
same,half-life,[5]; [13],4.4 h
same,half-life,[5]; [14],4.2 h
same,EC50,DENV-4 in BHK cells,59 µM
same,CC50,[6],> 50 µM
same,EC50,DENV-2 in BHK cells,95 µM
same,CC50 at 4 days,[7],36 µM
same,CC50,Cytotoxicity assay,2.4 µM
same,CC50,[8],14.1 ± 4.5 µM
same,EC50,CVB-4,13 µM
same,EC50,"[9]; Bovine viral diarrhea virus isolates and strains, yield reduction, BVDV NADL cp, MDBK",2.77 ± 1.16 µM
same,EC90,"[9]; Bovine viral diarrhea virus isolates and strains, yield reduction, BVDV NADL cp, MDBK, read-out: Antiviral Efficacy EC90",4.8 ± 1.55 µM
same,suppression of de novo BVDV production,"[9]; yield reduction assay, circa 20 μM",up to 6 log10
same,Antiviral Efficacy EC4 log,"[9]; yield reduction, BVDV NADL cp, MDBK",13.9 ± 3.07 μM
same,EC50,[10],> 200 µM
same,EC50,MCMV (MEF),> 0.8 µM
